We go through one compound from ChEMBL document CHEMBL4052667 (Bioorg Med Chem, 2017).

Data set [1] has as its target Poly [ADP-ribose] polymerase 2 (Homo sapiens, UniProt Q9UGN5). The data set can be described thus: Inhibition of recombinant human N-terminal GST-tagged PARP2 (2 to 583 residues) expressed in baculovirus infected Sf9 cells using biotinylated substrate after 1 hr by UV/Vis spectrophotometric analysis.
For another data set, the target named is Histone deacetylase 1 (Homo sapiens, UniProt Q13547). Description: Inhibition of HDAC1 (unknown origin) using acetylated peptide substrate preincubated for 15 mins followed by substrate addition measured after 60 mins by fluorescence analysis.
Histone deacetylase 1, sequence (Q13547 whole entry): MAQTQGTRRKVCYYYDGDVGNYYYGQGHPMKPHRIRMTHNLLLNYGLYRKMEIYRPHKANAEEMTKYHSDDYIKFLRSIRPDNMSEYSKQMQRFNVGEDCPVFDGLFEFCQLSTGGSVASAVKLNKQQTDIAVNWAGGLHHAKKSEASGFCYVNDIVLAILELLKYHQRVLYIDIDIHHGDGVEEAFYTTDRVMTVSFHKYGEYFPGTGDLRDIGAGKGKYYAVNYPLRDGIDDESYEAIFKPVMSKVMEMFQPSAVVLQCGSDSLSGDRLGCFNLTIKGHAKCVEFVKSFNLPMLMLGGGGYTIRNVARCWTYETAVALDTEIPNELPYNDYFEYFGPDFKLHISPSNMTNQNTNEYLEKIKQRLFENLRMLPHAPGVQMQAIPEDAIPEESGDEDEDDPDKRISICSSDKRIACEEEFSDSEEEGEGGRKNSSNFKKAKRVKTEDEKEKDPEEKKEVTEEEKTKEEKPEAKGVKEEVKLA
The target in data set [2] is T1, Protein deacetylase HDAC6 (Homo sapiens, UniProt Q9UBN7).
T1 sequence (Q9UBN7 whole entry): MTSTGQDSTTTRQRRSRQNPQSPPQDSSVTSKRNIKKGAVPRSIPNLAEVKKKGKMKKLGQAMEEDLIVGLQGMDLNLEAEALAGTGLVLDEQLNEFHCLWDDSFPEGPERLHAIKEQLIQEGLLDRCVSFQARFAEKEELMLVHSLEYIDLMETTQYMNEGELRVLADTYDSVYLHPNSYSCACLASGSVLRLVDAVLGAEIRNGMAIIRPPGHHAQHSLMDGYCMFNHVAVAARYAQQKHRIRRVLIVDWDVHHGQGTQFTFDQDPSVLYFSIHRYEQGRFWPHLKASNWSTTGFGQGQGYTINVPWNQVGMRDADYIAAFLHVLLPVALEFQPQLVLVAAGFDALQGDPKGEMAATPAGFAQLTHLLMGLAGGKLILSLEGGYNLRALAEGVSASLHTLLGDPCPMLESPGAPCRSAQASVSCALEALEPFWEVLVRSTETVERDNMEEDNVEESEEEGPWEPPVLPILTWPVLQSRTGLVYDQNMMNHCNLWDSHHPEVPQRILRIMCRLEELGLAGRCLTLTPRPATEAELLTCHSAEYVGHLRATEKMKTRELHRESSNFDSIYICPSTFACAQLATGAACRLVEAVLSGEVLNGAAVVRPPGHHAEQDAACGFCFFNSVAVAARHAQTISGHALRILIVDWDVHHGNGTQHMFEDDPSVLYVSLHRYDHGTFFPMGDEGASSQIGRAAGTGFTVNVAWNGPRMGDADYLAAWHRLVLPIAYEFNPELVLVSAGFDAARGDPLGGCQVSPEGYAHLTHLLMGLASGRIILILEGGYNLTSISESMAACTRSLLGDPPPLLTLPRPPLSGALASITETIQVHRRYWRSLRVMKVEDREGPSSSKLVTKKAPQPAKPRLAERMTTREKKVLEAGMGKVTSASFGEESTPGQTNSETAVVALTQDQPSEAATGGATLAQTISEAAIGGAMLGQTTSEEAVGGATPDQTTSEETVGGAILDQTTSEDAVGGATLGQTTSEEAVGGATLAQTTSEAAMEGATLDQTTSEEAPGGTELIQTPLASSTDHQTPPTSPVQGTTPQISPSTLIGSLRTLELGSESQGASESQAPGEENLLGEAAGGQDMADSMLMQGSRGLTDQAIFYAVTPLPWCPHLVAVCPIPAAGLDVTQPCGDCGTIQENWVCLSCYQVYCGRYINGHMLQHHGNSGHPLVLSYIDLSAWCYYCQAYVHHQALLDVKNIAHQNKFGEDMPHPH
Description: Inhibition of HDAC6 (unknown origin) using acetylated peptide substrate preincubated for 15 mins followed by substrate addition measured after 60 mins by fluorescence analysis.

A further data set has as its system T47D. Description: Antiproliferative activity against human T47D cells after 72 hrs by MTT assay. In kind it is functional, cell-based. (In general: Tetrazolium assays rely on reduction of a dye to a coloured formazan, in cell work by metabolically active cells.)
In another data set the test system is HeLa. The data set can be described thus: Antiproliferative activity against human HeLa cells after 72 hrs by MTT assay. The data set is classed as functional, cell-based.
The next data set concerns K562. The data set can be described thus: Antiproliferative activity against human K562 cells after 72 hrs by MTT assay. In kind it is functional, cell-based. The following applies: K562, 72 h.
Another data set has as its system U-937. The data set can be described thus: Antiproliferative activity against human U937 cells after 72 hrs by MTT assay. The data set is classed as functional, cell-based. The following applies: U-937, 72 h.
The subject of data set [3] is MDA-MB-231. The data set can be described thus: Antiproliferative activity against human MDA-MB-231 cells after 5 days by MTT assay. In kind it is functional, cell-based. The following applies: MDA-MB-231, 120 h.
In another data set the test system is MCF-10A. Description: Antiproliferative activity against human MCF10A cells after 72 hrs by MTT assay. In kind it is cell-based.
Data set [4] can be described thus: Safety index, ratio of compound IC50 to SAHA IC50 for human MCF10A cells. In kind it is ADME, cell-based, MCF-10A. Conditions: read-out: Ratio IC50.
For the next data set, the system named is Raji. Description: Antiproliferative activity against human Raji cells after 3 days by MTT assay. The data set is classed as functional, cell-based. Conditions: 72 h.
Another data set concerns HCC1937. Description: Antiproliferative activity against human HCC1937 cells after 3 days by MTT assay. The following applies: HCC1937, 72 h. The data set is classed as functional, cell-based.
In data set [5] the test system is MDA-MB-231. Description: Induction of apoptosis in human MDA-MB-231 cells assessed as early apoptotic cells at 2.5 uM after 48 hrs by Annexin V-FITC/propidium iodide staining based flow cytometry (reference value: 1.27%). In kind it is functional.
Data set [6] has as its system MDA-MB-231. Description: Induction of apoptosis in human MDA-MB-231 cells assessed as late apoptotic cells at 2.5 uM after 48 hrs by Annexin V-FITC/propidium iodide staining based flow cytometry (reference value: 3.82%). In kind it is functional.
Data set [7] has as its system MDA-MB-231. The data set can be described thus: Induction of apoptosis in human MDA-MB-231 cells assessed as necrotic cells at 2.5 uM after 48 hrs by Annexin V-FITC/propidium iodide staining based flow cytometry (reference value: 0.024%). In kind it is functional.
In data set [8] the test system is MDA-MB-231. The data set can be described thus: Induction of apoptosis in human MDA-MB-231 cells assessed as late apoptotic cells at 10 uM after 48 hrs by Annexin V-FITC/propidium iodide staining based flow cytometry (reference value: 3.82%). The data set is classed as functional. (A flow cytometer gives signals particle by particle.)
Data set [9] relates to MDA-MB-231. Description: Induction of apoptosis in human MDA-MB-231 cells assessed as necrotic cells at 10 uM after 48 hrs by Annexin V-FITC/propidium iodide staining based flow cytometry (reference value: 0.024%). The data set is classed as functional.
Data set [10] has as its system MDA-MB-231. Description: Induction of apoptosis in human MDA-MB-231 cells assessed as viable cells at 10 uM after 48 hrs by Annexin V-FITC/propidium iodide staining based flow cytometry (reference value: 94.9%). In kind it is functional. Conditions: MDA-MB-231, 48 h, read-out: Activity.
For data set [11], the system named is MDA-MB-231. Description: Induction of apoptosis in human MDA-MB-231 cells assessed as reduction in full length PARP level measured after 24 hrs by Western blot analysis. The data set is classed as functional, cell-based.
The test system of data set [12] is MDA-MB-231. Description: Induction of apoptosis in human MDA-MB-231 cells assessed as increase in gamma-H2AX level up to 10 uM after 24 hrs by Western blot analysis. The data set is classed as functional, cell-based.
The test system of data set [13] is MDA-MB-231. The data set can be described thus: Induction of apoptosis in human MDA-MB-231 cells assessed as increase in cleave caspase-7 level up to 10 uM measured after 24 hrs by Western blot analysis. The data set is classed as functional, cell-based. In general terms: A western blot detects proteins with antibodies after separation by electrophoresis.
The subject of data set [14] is MDA-MB-231. The data set can be described thus: Induction of apoptosis in human MDA-MB-231 cells assessed as increase in cleave caspase-8 level up to 10 uM measured after 24 hrs by Western blot analysis. In kind it is functional, cell-based.
Data set [15] deals with MDA-MB-231. The data set can be described thus: Decrease in BRCA1 protein level in human MDA-MB-231 cells up to 10 uM measured after 24 hrs by Western blot analysis. In kind it is functional, cell-based.
The subject of data set [16] is MDA-MB-231. The data set can be described thus: Induction of apoptosis in human MDA-MB-231 cells after 48 hrs by Annexin V-FITC/propidium iodide staining based flow cytometry. In kind it is functional, cell-based.

The term IC50 denotes the midpoint of a concentration-inhibition curve.

The source made the active and inactive calls. No cut-off for these calls is given here.

Poly [ADP-ribose] polymerase 2, sequence (Q9UGN5 whole entry, the tested form may be a part): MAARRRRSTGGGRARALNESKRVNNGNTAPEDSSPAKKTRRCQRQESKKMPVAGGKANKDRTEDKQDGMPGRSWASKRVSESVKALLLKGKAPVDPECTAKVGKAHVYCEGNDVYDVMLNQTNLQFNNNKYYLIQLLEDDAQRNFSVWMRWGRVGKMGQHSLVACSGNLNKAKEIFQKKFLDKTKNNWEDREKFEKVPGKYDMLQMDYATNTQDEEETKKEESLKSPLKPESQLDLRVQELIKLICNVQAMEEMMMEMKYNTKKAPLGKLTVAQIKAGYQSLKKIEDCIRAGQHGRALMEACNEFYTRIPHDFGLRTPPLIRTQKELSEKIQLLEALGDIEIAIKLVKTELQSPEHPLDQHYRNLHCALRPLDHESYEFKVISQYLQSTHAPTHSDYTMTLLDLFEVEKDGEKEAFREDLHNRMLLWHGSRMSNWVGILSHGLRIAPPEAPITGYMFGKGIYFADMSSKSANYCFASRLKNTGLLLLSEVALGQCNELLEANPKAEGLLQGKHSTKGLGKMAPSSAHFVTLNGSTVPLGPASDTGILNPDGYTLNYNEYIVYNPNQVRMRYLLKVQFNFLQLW

`O=C(/C=C/c1ccc(CCNC(=O)c2cc(Cc3n[nH]c(=O)c4ccccc34)ccc2F)cc1)NO`: the half-inhibitory concentration (IC50) in data set [1] amounted to 5.02 nM; against Histone deacetylase 1, 27.3 nM; in [2], 8.21 nM; with T47D, 2140 nM; in the data set on HeLa, 5100 nM; in the data set with K562, 5550 nM. Further, the 50% inhibitory concentration (IC50) came out at 4500 nM in the data set with U-937; 220 nM in the data set with MDA-MB-231 [3]; 8650 nM in the data set on MCF-10A; 1290 nM with Raji; 2020 nM in the data set with HCC1937. The selectivity ratio in data set [4] was determined as 4.1. Further, the Activity is 10.4% in the data set on MDA-MB-231 [5]; 8.03% in the data set with MDA-MB-231 [6]; 2.29% in the data set on MDA-MB-231 [7]; 45.8% with MDA-MB-231 [8]; 0.447% in the data set on MDA-MB-231 [9]; “Dose-dependent effect” in the data set with MDA-MB-231 [11]. Also, the Activity result with MDA-MB-231 [16] is “Dose-dependent effect”. For the same compound, the viability at 10 µM with MDA-MB-231 [10] turned out to be 6.79%. For the same compound, the outcome in the data set on MDA-MB-231 [12], with MDA-MB-231 [13], in the data set with MDA-MB-231 [14] and with MDA-MB-231 [15] was Active.
